Assay results from patent publication US20100152215A1, “METHODS OF IDENTIFYING ACTIVATORS OF LYN KINASE” (MELIOR PHARMACEUTICALS I, INC., priority 2007, published 2010).

Assays:
Assay in all cases: kinase screen for inhibition or activation
Type in all cases: biochemical
[1] = molecular target: Flt3 (Homo sapiens, UniProt P36888); conditions: 10 μM
Description: (§1) A kinase screen was conducted in which Compound 102 (10 μM) was screened against 49 kinases for inhibition or activation. Any kinase that was activated or inhibited by at least 20% was considered to be a significant effect. Of the 49 kinases screened, Lyn kinase was activated by 51%. In a repeat experiment, Lyn kinase activity was increased by 57%.

[2] = molecular target: CHK1 (Homo sapiens, UniProt O14757); conditions: 10 μM
Description: as §1

[3] = molecular target: MAPKAP2 (Homo sapiens, UniProt P49137); conditions: 10 μM
MAPKAP2, sequence (P49137 whole entry): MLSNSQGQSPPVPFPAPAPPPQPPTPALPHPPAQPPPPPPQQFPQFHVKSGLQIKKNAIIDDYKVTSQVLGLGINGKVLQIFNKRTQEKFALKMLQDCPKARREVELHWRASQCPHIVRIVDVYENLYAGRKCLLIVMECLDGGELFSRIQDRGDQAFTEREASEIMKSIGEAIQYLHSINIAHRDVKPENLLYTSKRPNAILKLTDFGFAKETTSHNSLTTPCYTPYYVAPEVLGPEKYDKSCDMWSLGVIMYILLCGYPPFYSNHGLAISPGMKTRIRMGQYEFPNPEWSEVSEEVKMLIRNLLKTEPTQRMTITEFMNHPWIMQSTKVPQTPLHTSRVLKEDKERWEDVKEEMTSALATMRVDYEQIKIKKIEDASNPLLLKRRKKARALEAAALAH
Description: as §1

[4] = molecular target: MAPK14 (P38) (Homo sapiens, UniProt Q16539); conditions: 10 μM
Description: as §1

[5] = molecular target: InsR (Homo sapiens, UniProt P06213); conditions: 10 μM
Description: as §1

[6] = molecular target: MAPKAP5 (Homo sapiens, UniProt Q8IW41); conditions: 10 μM
MAPKAP5, sequence (Q8IW41 whole entry): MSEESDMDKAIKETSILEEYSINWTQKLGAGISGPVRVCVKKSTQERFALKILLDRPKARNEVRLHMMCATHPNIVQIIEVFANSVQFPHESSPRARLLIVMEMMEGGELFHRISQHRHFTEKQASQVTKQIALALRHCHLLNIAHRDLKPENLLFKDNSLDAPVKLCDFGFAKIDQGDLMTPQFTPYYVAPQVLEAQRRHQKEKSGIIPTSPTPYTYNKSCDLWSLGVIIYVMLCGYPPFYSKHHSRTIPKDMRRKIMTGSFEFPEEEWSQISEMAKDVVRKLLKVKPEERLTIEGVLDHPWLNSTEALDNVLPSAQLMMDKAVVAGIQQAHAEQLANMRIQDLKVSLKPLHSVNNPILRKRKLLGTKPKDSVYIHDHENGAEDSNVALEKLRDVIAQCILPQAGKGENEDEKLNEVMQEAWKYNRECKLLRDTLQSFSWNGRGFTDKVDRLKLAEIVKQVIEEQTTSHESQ
Description: as §1

[7] = molecular target: IRAK4 (Homo sapiens, UniProt Q9NWZ3); conditions: 10 μM
Description: as §1

[8] = molecular target: BTK (Homo sapiens, UniProt Q06187); conditions: 10 μM
Description: as §1

[9] = molecular target: SGK1 (Homo sapiens, UniProt O00141); conditions: 10 μM
SGK1, sequence (O00141 whole entry, species assumed): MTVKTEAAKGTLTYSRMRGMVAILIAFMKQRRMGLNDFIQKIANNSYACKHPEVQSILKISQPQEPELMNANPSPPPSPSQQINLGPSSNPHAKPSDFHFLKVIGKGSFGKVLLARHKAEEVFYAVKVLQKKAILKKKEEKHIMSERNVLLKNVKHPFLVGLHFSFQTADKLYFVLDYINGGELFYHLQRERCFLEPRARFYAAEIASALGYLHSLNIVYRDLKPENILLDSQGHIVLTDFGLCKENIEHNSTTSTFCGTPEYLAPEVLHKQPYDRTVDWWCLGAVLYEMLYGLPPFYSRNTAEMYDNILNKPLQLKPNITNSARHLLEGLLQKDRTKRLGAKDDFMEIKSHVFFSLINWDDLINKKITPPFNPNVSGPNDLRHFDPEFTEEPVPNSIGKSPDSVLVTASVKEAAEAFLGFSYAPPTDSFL
Description: as §1

[10] = molecular target: PAK2 (Homo sapiens, UniProt Q13177); conditions: 10 μM
Description: as §1

[11] = test system: MAPK3 (p38); conditions: 10 μM
Description: as §1

[12] = molecular target: PKCz (Homo sapiens, UniProt Q05513); conditions: 10 μM
PKCz, sequence (Q05513 whole entry): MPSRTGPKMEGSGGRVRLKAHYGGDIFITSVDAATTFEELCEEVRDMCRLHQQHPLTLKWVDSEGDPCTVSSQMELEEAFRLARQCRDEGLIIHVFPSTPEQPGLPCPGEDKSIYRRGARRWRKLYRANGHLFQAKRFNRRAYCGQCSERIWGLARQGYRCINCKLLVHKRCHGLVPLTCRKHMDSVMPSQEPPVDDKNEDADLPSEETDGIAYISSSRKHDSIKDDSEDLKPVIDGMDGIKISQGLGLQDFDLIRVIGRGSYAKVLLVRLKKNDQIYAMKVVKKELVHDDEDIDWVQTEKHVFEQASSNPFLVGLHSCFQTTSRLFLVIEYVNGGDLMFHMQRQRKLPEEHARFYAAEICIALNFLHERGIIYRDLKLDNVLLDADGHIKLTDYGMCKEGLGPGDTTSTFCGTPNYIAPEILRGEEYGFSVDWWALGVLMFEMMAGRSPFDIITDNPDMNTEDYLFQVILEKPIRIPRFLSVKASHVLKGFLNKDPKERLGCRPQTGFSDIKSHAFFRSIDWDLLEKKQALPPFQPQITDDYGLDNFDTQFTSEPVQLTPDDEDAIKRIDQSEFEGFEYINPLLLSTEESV
Description: as §1

[13] = molecular target: PKA (Homo sapiens, UniProt P17612); conditions: 10 μM
Description: as §1

[14] = molecular target: Pim2 (Homo sapiens, UniProt Q9P1W9); conditions: 10 μM
Description: as §1

[15] = molecular target: PKCb2 (Homo sapiens, UniProt P05771); conditions: 10 μM
Description: as §1

[16] = molecular target: Syc (Homo sapiens, UniProt P43405); conditions: 10 μM
Description: as §1

[17] = molecular target: ROCK2 (Homo sapiens, UniProt O75116); conditions: 10 μM
Description: as §1

[18] = molecular target: KDR (FLK1, VEGFR2) (Homo sapiens, UniProt P35968); conditions: 10 μM
Description: as §1

[19] = molecular target: PDK1 (Homo sapiens, UniProt O15530); conditions: 10 μM
Description: as §1

[20] = molecular target: MST2 (Homo sapiens, UniProt Q13188); conditions: 10 μM
Description: as §1

[21] = molecular target: Lyn (Homo sapiens, UniProt P07948); conditions: 10 μM
Lyn, sequence (P07948 whole entry): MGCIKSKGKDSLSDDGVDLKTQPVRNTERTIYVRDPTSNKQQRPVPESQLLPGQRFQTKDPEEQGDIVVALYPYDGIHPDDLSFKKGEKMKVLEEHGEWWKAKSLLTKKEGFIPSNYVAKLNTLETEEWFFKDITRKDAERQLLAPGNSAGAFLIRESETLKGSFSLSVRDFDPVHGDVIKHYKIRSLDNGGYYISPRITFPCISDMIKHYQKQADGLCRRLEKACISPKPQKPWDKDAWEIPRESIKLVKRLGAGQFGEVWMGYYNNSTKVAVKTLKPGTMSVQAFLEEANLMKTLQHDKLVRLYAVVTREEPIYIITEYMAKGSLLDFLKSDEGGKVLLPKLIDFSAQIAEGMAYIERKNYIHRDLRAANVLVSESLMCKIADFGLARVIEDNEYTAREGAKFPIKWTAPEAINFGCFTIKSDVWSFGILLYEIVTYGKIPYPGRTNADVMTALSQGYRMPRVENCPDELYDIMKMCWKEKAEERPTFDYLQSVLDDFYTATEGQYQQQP
Description: as §1

[22] = molecular target: MET (Homo sapiens, UniProt P08581); conditions: 10 μM
Description: as §1

[23] = molecular target: Lck (Homo sapiens, UniProt P06239); conditions: 10 μM
Lck, sequence (P06239 whole entry, species assumed): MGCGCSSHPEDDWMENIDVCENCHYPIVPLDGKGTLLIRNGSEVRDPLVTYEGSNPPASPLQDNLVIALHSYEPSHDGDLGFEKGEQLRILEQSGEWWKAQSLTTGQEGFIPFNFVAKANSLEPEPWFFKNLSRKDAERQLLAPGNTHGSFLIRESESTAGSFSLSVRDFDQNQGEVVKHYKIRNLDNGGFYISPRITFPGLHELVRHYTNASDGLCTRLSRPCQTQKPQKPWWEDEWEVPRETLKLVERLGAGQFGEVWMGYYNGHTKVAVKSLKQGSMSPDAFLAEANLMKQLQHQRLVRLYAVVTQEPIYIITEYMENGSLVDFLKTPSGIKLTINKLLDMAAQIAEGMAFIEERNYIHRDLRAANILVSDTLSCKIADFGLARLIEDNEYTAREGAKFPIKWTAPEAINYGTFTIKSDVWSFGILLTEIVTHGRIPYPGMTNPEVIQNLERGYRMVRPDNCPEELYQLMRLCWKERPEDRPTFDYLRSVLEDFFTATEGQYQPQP
Description: as §1

[24] = molecular target: CDK2/cyclinA (Homo sapiens, UniProt P24941); conditions: 10 μM
Description: as §1

[25] = molecular target: Abl (Homo sapiens, UniProt P00519); conditions: 10 μM
Description: as §1

[26] = molecular target: cRAF (Homo sapiens, UniProt P04049); conditions: 10 μM
Description: as §1

[27] = molecular target: IKKb (Homo sapiens, UniProt O14920); conditions: 10 μM
Description: as §1

[28] = molecular target: MAPK1 (Homo sapiens, UniProt P28482); conditions: 10 μM
Description: as §1

[29] = molecular target: Akt1 (Homo sapiens, UniProt P31749); conditions: 10 μM
Description: as §1

[30] = molecular target: AurA (Homo sapiens, UniProt O14965); conditions: 10 μM
AurA, sequence (O14965 whole entry, species assumed): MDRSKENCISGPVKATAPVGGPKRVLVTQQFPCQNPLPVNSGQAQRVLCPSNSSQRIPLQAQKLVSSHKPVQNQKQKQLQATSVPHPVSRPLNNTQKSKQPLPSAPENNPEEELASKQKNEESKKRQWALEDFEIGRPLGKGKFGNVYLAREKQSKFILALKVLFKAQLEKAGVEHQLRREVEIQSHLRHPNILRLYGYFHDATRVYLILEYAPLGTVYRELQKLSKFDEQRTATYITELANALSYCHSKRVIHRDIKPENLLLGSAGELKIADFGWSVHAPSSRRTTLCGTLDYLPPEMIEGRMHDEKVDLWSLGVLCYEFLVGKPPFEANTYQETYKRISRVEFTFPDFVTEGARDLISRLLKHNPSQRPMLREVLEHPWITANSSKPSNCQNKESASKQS
Description: as §1

[31] = test system: p70S6K; conditions: 10 μM; inhibition
Description: as §1

[32] = molecular target: cKit (Homo sapiens, UniProt P10721); conditions: 10 μM
Description: as §1

[33] = molecular target: EphA2 (Homo sapiens, UniProt P29317); conditions: 10 μM
Description: as §1

[34] = test system: AMPK; conditions: 10 μM, positive = activation, negative = inhibition
Description: as §1

[35] = molecular target: CHK2 (Homo sapiens, UniProt O96017); conditions: 10 μM
Description: as §1

[36] = molecular target: CK1d (Homo sapiens, UniProt P48730); conditions: 10 μM
Description: as §1

[37] = molecular target: Src (Homo sapiens, UniProt P12931); conditions: 10 μM
Description: as §1

[38] = molecular target: Akt2 (Homo sapiens, UniProt P31751); conditions: 10 μM
Description: as §1

[39] = molecular target: JNK2 (Homo sapiens, UniProt P45984); conditions: 10 μM
JNK2, sequence (P45984 whole entry, species assumed): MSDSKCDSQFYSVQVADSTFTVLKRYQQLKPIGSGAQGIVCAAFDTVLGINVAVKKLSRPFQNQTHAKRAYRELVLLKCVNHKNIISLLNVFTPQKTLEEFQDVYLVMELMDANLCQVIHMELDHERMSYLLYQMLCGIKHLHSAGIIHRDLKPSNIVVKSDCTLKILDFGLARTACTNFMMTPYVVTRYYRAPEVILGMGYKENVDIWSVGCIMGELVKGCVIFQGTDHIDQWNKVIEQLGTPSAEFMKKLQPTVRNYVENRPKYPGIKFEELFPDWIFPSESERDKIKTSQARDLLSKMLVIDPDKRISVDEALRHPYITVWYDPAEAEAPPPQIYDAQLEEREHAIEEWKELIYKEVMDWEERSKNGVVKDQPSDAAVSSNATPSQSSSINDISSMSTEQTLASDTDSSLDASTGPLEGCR
Description: as §1

Flt3, sequence (P36888 27-993, species assumed): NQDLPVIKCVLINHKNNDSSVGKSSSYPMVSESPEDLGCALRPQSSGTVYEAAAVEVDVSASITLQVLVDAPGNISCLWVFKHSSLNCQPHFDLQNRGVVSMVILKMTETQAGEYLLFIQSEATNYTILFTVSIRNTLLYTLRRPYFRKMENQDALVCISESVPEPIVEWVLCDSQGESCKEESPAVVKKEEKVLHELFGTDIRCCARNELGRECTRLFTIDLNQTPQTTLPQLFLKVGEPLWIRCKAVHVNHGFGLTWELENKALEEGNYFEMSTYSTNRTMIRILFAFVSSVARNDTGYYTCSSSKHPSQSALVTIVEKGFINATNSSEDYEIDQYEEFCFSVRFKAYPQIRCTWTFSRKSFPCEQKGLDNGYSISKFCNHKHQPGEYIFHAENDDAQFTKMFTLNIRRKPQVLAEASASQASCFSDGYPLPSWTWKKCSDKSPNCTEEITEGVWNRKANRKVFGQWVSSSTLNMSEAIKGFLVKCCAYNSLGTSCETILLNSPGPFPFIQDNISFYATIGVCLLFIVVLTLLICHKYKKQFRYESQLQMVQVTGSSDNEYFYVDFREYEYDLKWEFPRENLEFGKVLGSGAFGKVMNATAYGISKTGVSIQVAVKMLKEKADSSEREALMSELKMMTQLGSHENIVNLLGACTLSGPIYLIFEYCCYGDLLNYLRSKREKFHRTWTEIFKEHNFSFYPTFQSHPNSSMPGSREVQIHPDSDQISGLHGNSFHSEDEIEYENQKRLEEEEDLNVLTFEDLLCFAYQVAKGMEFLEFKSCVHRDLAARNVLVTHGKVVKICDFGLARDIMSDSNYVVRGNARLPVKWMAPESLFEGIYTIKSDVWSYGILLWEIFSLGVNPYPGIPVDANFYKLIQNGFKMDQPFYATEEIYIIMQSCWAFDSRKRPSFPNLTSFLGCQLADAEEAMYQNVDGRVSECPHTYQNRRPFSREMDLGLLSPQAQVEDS

Cc1cccc(Oc2cnc(=O)[nH]c2)c1 [Compound 102]
COMPOUND 102 ACTIVITY (% KINASE ACTIVITY) [1]: 7.34%
COMPOUND 102 ACTIVITY (% KINASE ACTIVITY) [2]: 0.87%
COMPOUND 102 ACTIVITY (% KINASE ACTIVITY) [3]: −13.04%
COMPOUND 102 ACTIVITY (% KINASE ACTIVITY) [4]: 1.74%
COMPOUND 102 ACTIVITY (% KINASE ACTIVITY) [5]: 16.92%
COMPOUND 102 ACTIVITY (% KINASE ACTIVITY) [6]: 0.79%
COMPOUND 102 ACTIVITY (% KINASE ACTIVITY) [7]: 2.25%
COMPOUND 102 ACTIVITY (% KINASE ACTIVITY) [8]: 10%
COMPOUND 102 ACTIVITY (% KINASE ACTIVITY) [9]: −19.24%
COMPOUND 102 ACTIVITY (% KINASE ACTIVITY) [10]: 1.55%
COMPOUND 102 ACTIVITY (% KINASE ACTIVITY) [11]: −6.05%
COMPOUND 102 ACTIVITY (% KINASE ACTIVITY) [12]: 9.05%
COMPOUND 102 ACTIVITY (% KINASE ACTIVITY) [13]: −0.3%
COMPOUND 102 ACTIVITY (% KINASE ACTIVITY) [14]: −8.06%
COMPOUND 102 ACTIVITY (% KINASE ACTIVITY) [15]: −1.12%
COMPOUND 102 ACTIVITY (% KINASE ACTIVITY) [16]: 11.12%
COMPOUND 102 ACTIVITY (% KINASE ACTIVITY) [17]: −3.05%
COMPOUND 102 ACTIVITY (% KINASE ACTIVITY) [18]: 0%
COMPOUND 102 ACTIVITY (% KINASE ACTIVITY) [19]: −2.63%
COMPOUND 102 ACTIVITY (% KINASE ACTIVITY) [20]: 4.59%
COMPOUND 102 ACTIVITY (% KINASE ACTIVITY) ([21]; Lyn (repeat), repeat experiment, activation): 57%
COMPOUND 102 ACTIVITY (% KINASE ACTIVITY) ([21]; Lyn (repeat), repeat experiment, activation, listed as COMPOUND 102, 10 µM): 57.11%
COMPOUND 102 ACTIVITY (% KINASE ACTIVITY) ([21]; Lyn, first screen, activation): 51%
COMPOUND 102 ACTIVITY (% KINASE ACTIVITY) ([21]; Lyn, first screen, activation, listed as COMPOUND 102, 10 µM): 51.05%
COMPOUND 102 ACTIVITY (% KINASE ACTIVITY) ([21]; Lyn, third Lyn line of the table): 57%
COMPOUND 102 ACTIVITY (% KINASE ACTIVITY) [22]: 9.88%
COMPOUND 102 ACTIVITY (% KINASE ACTIVITY) [23]: 6.28%
COMPOUND 102 ACTIVITY (% KINASE ACTIVITY) [24]: −3.93%
COMPOUND 102 ACTIVITY (% KINASE ACTIVITY) [25]: −4.04%
COMPOUND 102 ACTIVITY (% KINASE ACTIVITY) [26]: 5.08%
COMPOUND 102 ACTIVITY (% KINASE ACTIVITY) [27]: −6.26%
COMPOUND 102 ACTIVITY (% KINASE ACTIVITY) [28]: 0.6%
COMPOUND 102 ACTIVITY (% KINASE ACTIVITY) [29]: 1.51%
COMPOUND 102 ACTIVITY (% KINASE ACTIVITY) [30]: −12.21%
p70S6K inhibited by [31]: 24.3%
COMPOUND 102 ACTIVITY (% KINASE ACTIVITY) [32]: 18.79%
COMPOUND 102 ACTIVITY (% KINASE ACTIVITY) [33]: 1.03%
COMPOUND 102 ACTIVITY (% KINASE ACTIVITY) [34]: −0.95%
COMPOUND 102 ACTIVITY (% KINASE ACTIVITY) [35]: −6.17%
COMPOUND 102 ACTIVITY (% KINASE ACTIVITY) [36]: −1.5%
COMPOUND 102 ACTIVITY (% KINASE ACTIVITY) [37]: 4.56%
COMPOUND 102 ACTIVITY (% KINASE ACTIVITY) [38]: −6.83%
COMPOUND 102 ACTIVITY (% KINASE ACTIVITY) [39]: −4.8%
